{
  "source": "patent US12102618B2",
  "about": "“Use of riluzole prodrugs to treat ataxias” (Biohaven Therapeutics Ltd., priority 2017, dated 2024)",
  "tested_on": "ataxia symptoms in subjects with spinocerebellar ataxia (SCA)",
  "assay": "Phase IIb/III randomized, double-blind, placebo-controlled trial of BHV-4157 in SCA (BHV4157-201), 8-week randomization phase: SARA",
  "type": "in vivo, human",
  "set-up": "key to Total SARA change / Total SARA, Δ Btw Groups / Axial SARA [#1-4] change / Appendicular SARA [4-8] change / Total SARA change (LSmeans) / Gait [#1] change (LSmeans) / Axial Items [#1-4] change (LSmeans) / Appendicular [#5-8] change (LSmeans) / Change in Total SARA Score / Axial Items [1-4] change / Appendicular Items [5-8] change / ΔSARA (between groups): SARA points; total scale 0 (no ataxia) to 40 (severe)",
  "settings": "for Total SARA, Δ Btw Groups / ΔSARA (between groups): BHV-4157 vs placebo; for Total SARA, week 8 StdChg / Total SARA, week 8 Δ Mean: all subjects",
  "description": "One measure for assessment of the methods of the present invention is by using the Scale for the Assessment and Rating of Ataxia (“SARA”).\nThe SARA was developed as a clinician-administered instrument to measure severity of symptoms in patients with SCA. While there are multiple scales available, the SARA has been tested in many patients with SCA.\nThe SARA scores range from 0 (no ataxia) to 40 (severe). The SARA takes approximately 15 minutes to administer. Assessed items include: • Gait (rated 0 to 8) • Stance (0 to 6) • Sitting (0 to 4) • Speech disturbance (0 to 6) • Finger chase (0 to 4) • Nose-finger test (0 to 4) • Fast alternating hand movements (0 to 4) • Heel-shin slide (0 to 4)\nOnce each of the 8 categories has been assessed, the total score is calculated to determine the severity of ataxia. For motor activities of the four extremities (items 5-8), assessments are performed bilaterally and the mean values are used to obtain the total score.\nThe purpose of this study is to compare the efficacy of BHV-4157 versus placebo on ataxia symptoms in subjects with spinocerebellar ataxia (SCA).\nStudy Type: Interventional Study Design: Allocation: Randomized • Intervention Model: Parallel Assignment • Masking: Quadruple (Participant, Care Provider, Investigator, Outcomes Assessor) • Primary Purpose: Treatment • Official Title: A Phase IIb/III, Randomized, Double-blind, Placebo-controlled Trial of BHV-4157 in Adult Subjects With Spinocerebellar Ataxia Primary Outcome Measures: • To measure the change in total score on the Scale for Assessment and Rating of Ataxia (SARA) [Time Frame: The change in total score from baseline to week 8.] Secondary Outcome Measures: • To assess the safety and tolerability of BHV-4157 in subjects with SCA by measuring the frequency and severity of adverse events and discontinuations of adverse events. [Time Frame: Baseline to week 8.] Measured by the frequency and severity of adverse events and discontinuations of adverse events. • To compare efficacy of BHV-4157 with placebo on patient impression of benefit via use of the PGI-C [Time Frame: Baseline to Week 8] Change in PGI-C score\nThe study is a Phase IIb/III, multicenter, randomized, double-blind, 2-arm placebo-controlled parallel-group study designed to assess safety, tolerability, and efficacy signals in a population of patients with Spinocerebellar Ataxia (SCA). Subjects will be randomized to receive placebo (QD) or BHV-4157 (140 mg QD), stratified by diagnosis (genotype) and baseline severity (Gait Item of the SARA of ≤4 and >4). Subjects with SCA3 genotype will be limited to comprise up to approximately 10% of the total population so that this most common type of SCA is not over-represented.\nDosing will continue for 8 weeks. Subjects will return to the clinic two weeks after discontinuing study medication for a follow-up safety visit. In addition, subjects completing the Randomization Phase will be offered 48 weeks of open-label treatment as long as the PI believes open-label treatment offers an acceptable risk-benefit profile. Subjects who agree to enter the Extension Phase will not be required to wash-out of drug or complete the follow-up safety visit, but instead should continue dosing as specified in the extension phase. Subjects entering the Extension Phase would have their first Extension Visit four weeks after the Week 8 Randomization Phase visit. If there is a delay of two weeks or more in dosing between the Randomization Phase and the Extension Phase, subjects will be required to complete an Extension Baseline Visit. Thereafter, subjects will undergo visits every fourth week through Week 12 of this phase. Then subjects will undergo visits every 12 weeks up to Week 48 of this phase.",
  "key": {"[1]": {"settings": "Females Subjects in Experienced Site Group, n = 17"}, "[2]": {"settings": "Females Subjects in Stable Subgroup, n = 18"}, "[3]": {"settings": "NOT-STABLE subjects, n = 28, week 8"}, "[4]": {"settings": "STABLE subjects, n = 34, week 8"}, "[5]": {"settings": "experienced sites/raters population"}, "[6]": {"settings": "experienced sites/raters population, n = 37, week 8"}},
  "data": [
    {"smiles": "CN(CC(=O)Nc1nc2ccc(OC(F)(F)F)cc2s1)C(=O)CNC(=O)CN", "note": "[BHV-4157, troriluzole]", "values": [
      {"measurement": "Responder Analysis, ≥3 points in All Subjects (n = 67)", "setting": "Females", "value": 32, "unit": "%"},
      {"measurement": "Responders, ≥1 point", "setting": "[1]", "value": 71, "unit": "%"},
      {"measurement": "Responders, ≥3 points", "setting": "[1]", "value": 41, "unit": "%"},
      {"measurement": "Responders, ≥1 point", "setting": "[2]", "value": 67, "unit": "%"},
      {"measurement": "Responders, ≥3 points", "setting": "[2]", "value": 39, "unit": "%"},
      {"measurement": "Change in Total SARA Score", "setting": "Females, All Subjects, n = 31, week 8", "value": "−1.08"},
      {"measurement": "Change in Total SARA Score", "setting": "Females, Experience of Sites, n = 20", "value": "−1.15"},
      {"measurement": "Change in Total SARA Score", "setting": "Females, STABLE Subgroup, n = 18", "value": "−1.33"},
      {"measurement": "Responder Analysis, ≥3 points in Stable Subjects (n = 38)", "setting": "Females, printed on line Experience of Sites", "value": 35, "unit": "%"},
      {"measurement": "Responder Analysis, ≥3 points at Experienced sites (n = 33)", "setting": "Females, printed on line STABLE Subgroup", "value": 39, "unit": "%"},
      {"measurement": "Appendicular SARA [4-8] change", "setting": "[3]", "value": "−0.15"},
      {"measurement": "Axial SARA [#1-4] change", "setting": "[3]", "value": "−0.46"},
      {"measurement": "Total SARA change", "setting": "STABLE subjects (screening-to-baseline SARA within 1 point), n = 34, 140 mg QD, baseline to week 8", "value": "−0.90"},
      {"measurement": "Total SARA, Δ Btw Groups", "setting": "STABLE subjects, week 8", "value": "−0.39"},
      {"measurement": "Appendicular SARA [4-8] change", "setting": "[4]", "value": "−0.36"},
      {"measurement": "Axial SARA [#1-4] change", "setting": "[4]", "value": "−0.27"},
      {"measurement": "Responders, Response Definition ≥3 points (Total SARA)", "setting": "Table 1, printed on line Total SARA STABLE, week 8", "value": 24, "unit": "%"},
      {"measurement": "Responders, Response Definition ≥ 1 point (Total SARA)", "setting": "Table 1, printed on line Total SARA UNSTABLE, week 8", "value": 59, "unit": "%"},
      {"measurement": "Total SARA change", "setting": "UNSTABLE / NOT-STABLE subjects, n = 28, 140 mg QD, week 8", "value": "−0.87"},
      {"measurement": "Total SARA, Δ Btw Groups", "setting": "UNSTABLE subjects, week 8", "value": 0.62},
      {"measurement": "Total SARA, week 8 StdChg", "setting": "n = 63, May-18", "value": 0.459},
      {"measurement": "Total SARA, week 8 Δ Mean", "setting": "n = 63, May-18 analysis, listed as BHV", "value": "−0.810"},
      {"measurement": "Total SARA, week 8 Δ Mean", "setting": "n = 63, May-18 analysis, listed as BHV5157", "value": "−0.81"},
      {"measurement": "Total SARA, week 8 StdChg", "setting": "n = 63, Sep-17 analysis", "value": 0.459},
      {"measurement": "Total SARA, week 8 Δ Mean", "setting": "n = 63, Sep-17 analysis", "value": "−0.810"},
      {"measurement": "Responders, Response Definition ≥1 point", "setting": "[5]", "value": 51.4, "unit": "%"},
      {"measurement": "Responders, Response Definition ≥3 points", "setting": "[5]", "value": 21.6, "unit": "%"},
      {"measurement": "Appendicular [#5-8] change (LSmeans)", "setting": "[6]", "value": "−0.52"},
      {"measurement": "Axial Items [#1-4] change (LSmeans)", "setting": "[6]", "value": "−0.47"},
      {"measurement": "Gait [#1] change (LSmeans)", "setting": "[6]", "value": "−0.14"},
      {"measurement": "Total SARA change (LSmeans)", "setting": "[6]", "value": "−1.37"},
      {"measurement": "Responder Analysis, ≥3 points in All Subjects (n = 65)", "setting": "lighter median", "value": 33, "unit": "%"},
      {"measurement": "Change in Total SARA Score", "setting": "lighter median (≤76.4 kg), all lighter subjects, n = 27, week 8", "value": "−1.38"},
      {"measurement": "ΔSARA (between groups)", "setting": "lighter median, EXP Sites", "value": "−1.03"},
      {"measurement": "Change in Total SARA Score", "setting": "lighter median, EXP Sites, n = 18", "value": "−1.64"},
      {"measurement": "ΔSARA (between groups)", "setting": "lighter median, Stable Subgroup", "value": "−0.83"},
      {"measurement": "Change in Total SARA Score", "setting": "lighter median, Stable Subgroup, n = 19", "value": "−1.18"},
      {"measurement": "Appendicular Items [5-8] change", "setting": "lighter median, n = 27", "value": "−0.69"},
      {"measurement": "Axial Items [1-4] change", "setting": "lighter median, n = 27", "value": "−0.85"}
    ]}
  ]
}
